Residue numbers refer to the chain shown, from its start.

Common to all, as to format: biochemical
Test [1] concerns the target T1, AKR1C1 (Homo sapiens, UniProt Q04828).
T1 construct: gift of the Penning lab (University of Pennsylvania School of Medicine)
T1 sequence (Q04828 1-323): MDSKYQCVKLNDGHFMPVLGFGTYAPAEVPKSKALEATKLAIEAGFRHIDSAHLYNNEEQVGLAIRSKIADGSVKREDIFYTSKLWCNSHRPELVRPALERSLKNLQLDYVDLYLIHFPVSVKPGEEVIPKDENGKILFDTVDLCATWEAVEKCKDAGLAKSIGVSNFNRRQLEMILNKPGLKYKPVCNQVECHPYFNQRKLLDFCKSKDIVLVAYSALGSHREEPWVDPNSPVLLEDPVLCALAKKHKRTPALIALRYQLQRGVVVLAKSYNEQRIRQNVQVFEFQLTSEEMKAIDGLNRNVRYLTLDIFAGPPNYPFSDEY
Put plainly: Steady state kinetic parameters of fluorogenic substrates with purified AKR1C isozymes. The arrangement: key: no activity = 10 μg enzyme produced less than 0.1 nmol product per min (determined fluorimetrically). Conditions: isozyme 1C1; 10 μg enzyme, fluorimetric. The source says: (§1) AKR1C2 and AKR1C3 Selective Probes: Probes (5a-5i) were examined as substrates for the four purified human HSD isozymes (AKR1C1-AKR1C4) under standard assay conditions [catalytic quantities of enzyme, an excess of cofactor (NADPH)]. The initial reaction rates were used to derive standard kinetic parameters (kcat and Km, Materials and Methods).
(§2) Substrate tolerance of AKR1Cs: Isozyme Activity with 5a-5i: Activity of the second generation of fluorogenic substrates with the AKR1C isozymes was determined as follows. To a STARNA semi-micro fluorimeter cell (with 4 polished windows) was added 100 μL of 1 M potassium phosphate buffer (pH 6), 840 μL doubly deionized water, and 20 μL of 12.5 mM NADPH. After mixing the aqueous components thoroughly, 20 μL of acetonitrile was added as a cosolvent and mixed well. 20 μL of 2.5 mM second generation fluorogenic ketone in acetonitrile (5a-5i) was then added and mixed. 4 μL of undiluted AKR1C (provided generously by the Penning lab at concentrations of 2.5 mg/mL) were then added to the cuvette for a total of 10 μg purified enzyme in the 1 mL assay volume. Fluorescence arising from the respective alcohol reduction product was then monitored over the course of 5-10 minutes.
(§3) Binding constant and catalytic rates (Km and kcat) of the second generation of fluorogenic substrates was determined as follows. To a STARNA semi-micro fluorometer cell (with 4 polished windows) was added 100 μL of 1 M potassium phosphate buffer (pH 6), 840 μL doubly deionized water, and 20 AL of 12.5 mM NADPH. After mixing the aqueous components thoroughly, 20 μL of acetonitrile was added as a cosolvent and mixed well. 20 μL of the second generation fluorogenic ketone (5a-5i) was then added and mixed to achieve assay concentrations of 5Km to Km/5. To initiate the reduction, 2 or 4 μL of diluted AKR1C (1:2 to 1:100, depending on the kinetics of a particular isozyme's reduction of a substrate) was then added to the cuvette. Fluorescence arising from the respective alcohol reduction product was then monitored over the course of 3 minutes (Excitation and emission band pass slits both at 4 nm, lamp 700 V, λexc 410 nm, λem 510). The rate of product formation, expressed in units of nanomoles per minute, were calculated according to previously published procedures (Wierzchowski, J.; Dafeldecker, W. P.; Holmquist, B.; Vallee, B. L. Anal. Biochem. 1989, 178, 57-62):
(§4) initial rate=[nst×(Ft−F0)/(Fst)]/t (1)
(§5) where Ft and F0 represent the fluorescence at times t and 0 minutes, nst is the nanomoles of product in a known concentration of product, and Fst is the fluorescence resulting from nst of product. Kinetic parameters were approximated by GraFit (Erithacus Software, Surrey, UK) nonlinear regression analysis program to fit the untransformed data to a hyperbolic function as originally described (Wierzchowski, J.; Dafeldecker, W. P.; Holmquist, B.; Vallee, B. L. Anal. Biochem. 1989, 178, 57-62). Reported enzymatic kinetic parameters are the average of three independent determinations from three different preparations of substrate and enzyme.

Test [2] concerns the target T2, AKR1C3 (Homo sapiens, UniProt P42330).
T2 construct: gift of Professor Trevor Penning (University of Pennsylvania School of Medicine)
T2 sequence (P42330 1-323): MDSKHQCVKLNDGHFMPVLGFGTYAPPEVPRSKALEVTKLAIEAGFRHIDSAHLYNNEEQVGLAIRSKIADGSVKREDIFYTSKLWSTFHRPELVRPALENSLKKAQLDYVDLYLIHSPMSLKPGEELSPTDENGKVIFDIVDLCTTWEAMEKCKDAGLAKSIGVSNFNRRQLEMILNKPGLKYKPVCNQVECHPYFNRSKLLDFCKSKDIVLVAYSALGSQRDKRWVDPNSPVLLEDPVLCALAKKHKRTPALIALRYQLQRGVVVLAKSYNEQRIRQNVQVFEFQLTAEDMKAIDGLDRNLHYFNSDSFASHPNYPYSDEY
Described as above. The note with it: isozyme 1C3, fluorimetric; for activity as substrate (product formation): 10 μg enzyme; for Kcat / Km: potassium phosphate buffer pH 6, NADPH. How it is done: The initial reaction rates were used to derive standard kinetic parameters (kcat and Km, Materials and Methods).
Substrate tolerance of AKR1Cs: Isozyme Activity with 5a-5i: Activity of the second generation of fluorogenic substrates with the AKR1C isozymes was determined as follows. […] After mixing the aqueous components thoroughly, 20 μL of acetonitrile was added as a cosolvent and mixed well. […] 4 μL of undiluted AKR1C (provided generously by the Penning lab at concentrations of 2.5 mg/mL) were then added to the cuvette for a total of 10 μg purified enzyme in the 1 mL assay volume. Fluorescence arising from the respective alcohol reduction product was then monitored over the course of 5-10 minutes.
Binding constant and catalytic rates (Km and kcat) of the second generation of fluorogenic substrates was determined as follows. […] After mixing the aqueous components thoroughly, 20 μL of acetonitrile was added as a cosolvent and mixed well. […] To initiate the reduction, 2 or 4 μL of diluted AKR1C (1:2 to 1:100, depending on the kinetics of a particular isozyme's reduction of a substrate) was then added to the cuvette. Fluorescence arising from the respective alcohol reduction product was then monitored over the course of 3 minutes (Excitation and emission band pass slits both at 4 nm, lamp 700 V, λexc 410 nm, λem 510).
as §4
where Ft and F0 represent the fluorescence at times t and 0 minutes, nst is the nanomoles of product in a known concentration of product, and Fst is the fluorescence resulting from nst of product. […] Reported enzymatic kinetic parameters are the average of three independent determinations from three different preparations of substrate and enzyme.

For test [3], the target named is T3, AKR1C2 (Homo sapiens, UniProt P52895).
T3 construct: gift of the Penning lab (University of Pennsylvania School of Medicine)
T3 sequence (P52895 1-323): T1 sequence (Q04828 1-323) with T38V, R47H, L54V, C87S, V151M, R170H, Q172L
The description is as above. Further details: key to activity as substrate (product formation): no activity = 10 μg enzyme produced less than 0.1 nmol product per min (determined fluorimetrically). The note with it: isozyme 1C2, fluorimetric; for activity as substrate (product formation): 10 μg enzyme.
Text: as §1, §2, §3, §4, §5

The target in test [4] is T4, AKR1C4 (Homo sapiens, UniProt P17516).
T4 construct: gift of the Penning lab (University of Pennsylvania School of Medicine)
T4 sequence (P17516 1-323): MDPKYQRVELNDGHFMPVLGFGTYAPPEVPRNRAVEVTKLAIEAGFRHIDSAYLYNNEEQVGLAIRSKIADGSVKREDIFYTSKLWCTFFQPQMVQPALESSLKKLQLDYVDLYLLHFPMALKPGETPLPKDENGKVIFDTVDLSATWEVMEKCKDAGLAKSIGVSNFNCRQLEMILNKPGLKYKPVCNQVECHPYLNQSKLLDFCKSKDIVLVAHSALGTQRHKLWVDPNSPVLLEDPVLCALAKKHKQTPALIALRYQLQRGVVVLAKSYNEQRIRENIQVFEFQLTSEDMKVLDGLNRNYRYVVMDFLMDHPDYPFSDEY
Described as above. The arrangement: key to activity as substrate (product formation): no activity = 10 μg enzyme produced less than 0.1 nmol product per min (determined fluorimetrically). Conditions: isozyme 1C4, fluorimetric; for activity as substrate (product formation): 10 μg enzyme; for Kcat / Km: potassium phosphate buffer pH 6, NADPH.
Text: as §1, §2, §3, §4, §5

Test [5] has as its target T2, AKR1C3. Put plainly: Determination of kinetic parameters for AKR1C3 (fluorogenic substrate 5). The note with it: Type 2 isozyme of 3α-HSD (AKR 1C3). Here is the method:
Whether the activity of human enzymes may be imaged by probe 5 was investigated. Type 2 isozyme of 3α-HSD (AKR 1C3) was selected for this study owing to its important physiological role.
Fluorogenic substrate 5 reduction was monitored on a Hitachi F-4500 fluorimeter in Starna quartz cuvettes fluorometrically in 1 mL systems containing 100 mM potassium phosphate pH 6.0 containing excess of NADPH cofactor (250 μM) and various amounts of the substrate (0.1953-50 μM) dissolved in 4% acetonitrile. […] Cuvettes were mixed thoroughly after addition of cofactor, cosolvent, and substrate. Reactions were initiated by the addition of 4 μL of dilute AKR1C3 (115 μg/mL) and were corrected for nonenzymatic rates. All reactions were followed by monitoring the increase in fluorescence of the product alcohol for 5 minutes at λem 510 nm with λex 440 nm (Excitation and emission band pass slits both at 2.5 nm, lamp 900 V) at 37° C. The initial velocities, expressed in units of nanomoles per minute, were calculated according to previously published procedures (Wierzchowski, J.; Dafeldecker, W. P.; Holmquist, B.; Vallee, B. L. Anal. Biochem. 1989, 178, 57-62): initial rate=[nst×(Ft−F0)/(Fst)]/t where Ft and F0 represent the fluorescence at time t and 0, nst is the nanomoles of the product standard, and Fst is the fluorescence resulting from nst of product. Kinetic constants were approximated using the GraFit (Erithacus Software, Surrey, UK) non-linear regression analysis program to fit the untransformed data to a hyperbolic function as originally described (Wilkinson, G. N. Biochem. J. 1961, 80, 324-332), yielding estimated values of kcat, Km, and their associated standard errors.

Consider `CC(C)C(=O)c1cc(=O)oc2c3c4c(cc12)CCCN4CCC3`, for which the “activity as substrate (product formation)” value (“activity as substrate” below) in test [1], in test [2], in test [3] and in test [4] was “no activity” each time.

Turning to `O=C(c1cc(=O)oc2c3c4c(cc12)CCCN4CCC3)C1CCCCC1`, the “activity as substrate” value in test [1], in test [2], in test [3] and in test [4] was “no activity” each time.

`O=C1CCc2c1c1cc3c4c(c1oc2=O)CCCN4CCC3`: in test [2], the Kcat is 0.12 s⁻¹ and the Km is 0.13 µM. Moreover, in test [4], the “activity as substrate” value is “no activity”.

Turning to `CC(=O)c1cc(=O)oc2cc(N(C)C)ccc12`, in test [2], the Kcat worked out at 0.145 s⁻¹ and the Km is 4.3 µM. Moreover, in test [4], the Kcat was 0.035 s⁻¹ and the Km is 14.8 µM.

In the case of `CC(=O)c1cc(=O)oc2cc3c(cc12)CCCN3`, the “activity as substrate” value in test [1] and in test [4] was “no activity” each time. Moreover, the Kcat in test [2] came out at 0.155 s⁻¹; in test [3] (potassium phosphate buffer pH 6, NADPH) it was 0.00983 s⁻¹. The Km in test [2] turned out to be 4.3 µM.

With `CC(=O)c1cc(=O)oc2c3c(ccc12)NCCC3`, in test [2], the Kcat was 0.115 s⁻¹ and the Km was 8.3 µM. For the same compound, in test [4], the Kcat came to 0.0233 s⁻¹ and the Km was 40.2 µM.

For `C[C@]12CCC(=O)C[C@@H]1CC[C@@H]1[C@@H]2CC[C@]2(C)[C@@H](O)CC[C@@H]12` [5α-dihydrotestosterone, reference compound], in test [2], the Kcat is 0.00417 s⁻¹ and the Km was determined as 26 µM. In test [5], the Kcat was 0.00417 s⁻¹ and the Km came out at 26 µM.

For the compound `CC(=O)c1cc(=O)oc2c3c4c(cc12)CCCN4CCC3` [drawing 207], in test [2], the Kcat is 0.125 s⁻¹ and the Km was 1.1 µM. Also, in test [4], the Kcat is 0.00633 s⁻¹ and the Michaelis-Menten constant (Km) was 20.6 µM.

Take `O=C(c1ccccc1)c1cc(=O)oc2c3c4c(cc12)CCCN4CCC3` [drawing 210]: in test [2], the Kcat was determined as 0.09 s⁻¹ and the Michaelis constant (Km) is 0.051 µM. Moreover, in test [4], the Kcat turned out to be 0.0103 s⁻¹ and the Michaelis constant (Km) was 6.2 µM.

In the case of `CC(=O)c1c(Br)c(=O)oc2c3c4c(cc12)CCCN4CCC3` [drawing 212], the “activity as substrate” value in test [1], in test [2], in test [3] and in test [4] was “no activity” in each case.

Regarding `CC(=O)c1c(-c2ccccc2)c(=O)oc2c3c4c(cc12)CCCN4CCC3` [drawing 213], the “activity as substrate” value in test [1], in test [2], in test [3] and in test [4] was “no activity” each time.

(Values after patent publication US20100048604A1, “Ligands for Aldoketoreductases” (priority 2004, published 2010).)
